≈ marks a conversion by molar mass, not a printed value. Calls of active or inactive are those of the source. The calls are words filed in the database; no cut-off is given here.
What was measured:
[1] = biological target: Heat shock protein HSP 90-alpha (Homo sapiens, UniProt P07900)
[2] = Half life in rat liver microsomes; format: ADME, Microsome
CYP2C9 = CYP2C9 (Homo sapiens, UniProt P11712); test: Inhibition of CYP2C9 at 3 uM; format: ADME
[3] = Half life in human liver microsomes; format: ADME, Microsome
[4] = Aqueous solubility of the compound; format: physicochemical; settings: buffer
CYP3A4 = CYP3A4 (Homo sapiens, UniProt P08684); test: Inhibition of CYP3A4 at 3 uM; format: ADME
Chain of CYP3A4 (P08684 whole entry): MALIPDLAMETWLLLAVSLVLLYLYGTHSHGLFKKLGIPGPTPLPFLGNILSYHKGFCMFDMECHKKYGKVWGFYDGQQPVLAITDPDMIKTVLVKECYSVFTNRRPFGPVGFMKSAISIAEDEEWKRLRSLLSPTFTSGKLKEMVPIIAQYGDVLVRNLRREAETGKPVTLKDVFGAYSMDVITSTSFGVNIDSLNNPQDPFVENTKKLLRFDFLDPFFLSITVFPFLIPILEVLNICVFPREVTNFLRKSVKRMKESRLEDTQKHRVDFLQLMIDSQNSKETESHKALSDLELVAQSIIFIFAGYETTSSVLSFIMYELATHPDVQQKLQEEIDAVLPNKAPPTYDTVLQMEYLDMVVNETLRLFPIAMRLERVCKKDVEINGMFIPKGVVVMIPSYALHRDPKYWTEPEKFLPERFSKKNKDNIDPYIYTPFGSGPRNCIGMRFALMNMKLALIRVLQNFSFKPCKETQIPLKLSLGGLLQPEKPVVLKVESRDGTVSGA

[5] = Half life in mouse liver microsomes; format: ADME, Microsome
CYP2D6 = CYP2D6 (Homo sapiens, UniProt P10635); test: Inhibition of CYP2D6 at 3 uM; format: ADME
Chain of CYP2D6 (P10635 whole entry): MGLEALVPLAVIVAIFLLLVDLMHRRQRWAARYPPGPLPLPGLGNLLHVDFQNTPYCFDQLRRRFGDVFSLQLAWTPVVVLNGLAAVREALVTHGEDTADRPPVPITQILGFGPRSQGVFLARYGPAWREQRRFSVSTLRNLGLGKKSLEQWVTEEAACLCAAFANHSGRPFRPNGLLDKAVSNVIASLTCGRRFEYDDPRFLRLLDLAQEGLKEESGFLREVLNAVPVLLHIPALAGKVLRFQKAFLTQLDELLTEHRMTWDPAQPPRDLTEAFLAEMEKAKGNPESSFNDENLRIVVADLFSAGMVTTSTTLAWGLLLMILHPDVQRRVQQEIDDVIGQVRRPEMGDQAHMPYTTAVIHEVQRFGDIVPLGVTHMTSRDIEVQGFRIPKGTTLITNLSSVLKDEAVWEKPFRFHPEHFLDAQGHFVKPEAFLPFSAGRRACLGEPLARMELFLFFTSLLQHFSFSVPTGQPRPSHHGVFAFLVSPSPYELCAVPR

[6] = biological target: Voltage-gated inwardly rectifying potassium channel KCNH2 (Homo sapiens, UniProt Q12809)
Chain of Voltage-gated inwardly rectifying potassium channel KCNH2 (Q12809 whole entry): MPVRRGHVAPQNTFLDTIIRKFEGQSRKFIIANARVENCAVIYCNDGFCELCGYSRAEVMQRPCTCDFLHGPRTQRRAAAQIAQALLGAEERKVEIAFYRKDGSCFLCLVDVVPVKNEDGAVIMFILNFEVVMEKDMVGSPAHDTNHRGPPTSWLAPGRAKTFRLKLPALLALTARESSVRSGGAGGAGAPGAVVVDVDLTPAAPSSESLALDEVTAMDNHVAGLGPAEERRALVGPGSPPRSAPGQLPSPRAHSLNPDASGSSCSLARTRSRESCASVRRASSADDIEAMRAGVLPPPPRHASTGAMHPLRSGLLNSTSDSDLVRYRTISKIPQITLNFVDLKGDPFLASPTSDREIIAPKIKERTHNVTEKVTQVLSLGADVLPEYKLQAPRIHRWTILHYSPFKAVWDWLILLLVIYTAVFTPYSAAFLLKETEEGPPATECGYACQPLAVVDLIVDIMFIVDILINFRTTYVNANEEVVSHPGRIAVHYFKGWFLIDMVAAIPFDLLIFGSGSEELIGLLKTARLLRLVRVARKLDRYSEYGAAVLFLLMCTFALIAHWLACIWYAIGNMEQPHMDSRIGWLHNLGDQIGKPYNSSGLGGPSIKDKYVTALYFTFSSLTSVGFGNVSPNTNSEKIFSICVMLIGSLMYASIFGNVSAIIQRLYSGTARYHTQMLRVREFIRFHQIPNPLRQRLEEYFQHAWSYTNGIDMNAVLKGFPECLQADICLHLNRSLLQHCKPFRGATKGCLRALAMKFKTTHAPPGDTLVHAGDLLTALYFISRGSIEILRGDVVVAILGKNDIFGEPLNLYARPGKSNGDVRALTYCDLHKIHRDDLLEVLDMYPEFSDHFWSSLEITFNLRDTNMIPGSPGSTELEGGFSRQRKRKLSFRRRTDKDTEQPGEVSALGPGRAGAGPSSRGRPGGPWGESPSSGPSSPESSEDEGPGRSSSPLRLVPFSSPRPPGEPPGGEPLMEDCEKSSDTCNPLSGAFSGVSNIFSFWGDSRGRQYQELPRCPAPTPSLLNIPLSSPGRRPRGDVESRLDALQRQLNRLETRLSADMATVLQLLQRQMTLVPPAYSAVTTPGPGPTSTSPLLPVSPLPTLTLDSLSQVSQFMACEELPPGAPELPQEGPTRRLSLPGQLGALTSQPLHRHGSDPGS

[7] = biological target: Tyrosine-protein kinase Fyn (Homo sapiens, UniProt P06241); test: Inhibition of FYN
Chain of Tyrosine-protein kinase Fyn (P06241 whole entry): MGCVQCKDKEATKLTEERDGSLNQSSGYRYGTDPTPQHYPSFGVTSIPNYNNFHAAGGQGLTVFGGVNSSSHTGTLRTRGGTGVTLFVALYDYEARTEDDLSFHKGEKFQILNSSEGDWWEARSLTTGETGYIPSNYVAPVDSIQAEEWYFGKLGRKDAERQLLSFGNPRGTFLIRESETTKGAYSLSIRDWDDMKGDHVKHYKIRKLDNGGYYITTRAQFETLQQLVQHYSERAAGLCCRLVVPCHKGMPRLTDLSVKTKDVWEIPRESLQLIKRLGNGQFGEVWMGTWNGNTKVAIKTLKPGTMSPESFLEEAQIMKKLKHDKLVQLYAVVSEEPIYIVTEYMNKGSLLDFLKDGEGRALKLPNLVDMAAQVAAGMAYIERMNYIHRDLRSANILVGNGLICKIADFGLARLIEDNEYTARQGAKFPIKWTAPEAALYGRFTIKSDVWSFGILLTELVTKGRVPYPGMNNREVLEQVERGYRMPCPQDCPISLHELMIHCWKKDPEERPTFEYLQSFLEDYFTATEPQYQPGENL

U-87MG ATCC [8] = settings: Homo sapiens
[9] = AUC (0 to infinity) in CD-1 mouse at 10 mg/kg, po; format: ADME, organism-based; set-up: time infinity, dose 10 mg/kg, route oral; settings: plasma
U-87MG ATCC [10] = settings: Homo sapiens; remark: listed apart in the source
[11] = Plasma clearance in CD-1 mouse at 2 mg/kg, iv; format: ADME, organism-based; set-up: dose 2 mg/kg, route intravenous
[12] = Volume of distribution at steady state in CD-1 mouse at 2 mg/kg, iv; format: ADME, organism-based; set-up: dose 2 mg/kg, route intravenous; settings: in vivo, read-out: Vdss
[13] = AUC (0 to infinity) in CD-1 mouse at 2 mg/kg, iv; format: ADME, organism-based; set-up: time infinity, dose 2 mg/kg, route intravenous; settings: plasma
[14] = biological target: Proto-oncogene tyrosine-protein kinase Src (Homo sapiens, UniProt P12931); test: Inhibition of SRC-related membrane-associated tyrosine kinase
Chain of Proto-oncogene tyrosine-protein kinase Src (P12931 2-536 limits assumed): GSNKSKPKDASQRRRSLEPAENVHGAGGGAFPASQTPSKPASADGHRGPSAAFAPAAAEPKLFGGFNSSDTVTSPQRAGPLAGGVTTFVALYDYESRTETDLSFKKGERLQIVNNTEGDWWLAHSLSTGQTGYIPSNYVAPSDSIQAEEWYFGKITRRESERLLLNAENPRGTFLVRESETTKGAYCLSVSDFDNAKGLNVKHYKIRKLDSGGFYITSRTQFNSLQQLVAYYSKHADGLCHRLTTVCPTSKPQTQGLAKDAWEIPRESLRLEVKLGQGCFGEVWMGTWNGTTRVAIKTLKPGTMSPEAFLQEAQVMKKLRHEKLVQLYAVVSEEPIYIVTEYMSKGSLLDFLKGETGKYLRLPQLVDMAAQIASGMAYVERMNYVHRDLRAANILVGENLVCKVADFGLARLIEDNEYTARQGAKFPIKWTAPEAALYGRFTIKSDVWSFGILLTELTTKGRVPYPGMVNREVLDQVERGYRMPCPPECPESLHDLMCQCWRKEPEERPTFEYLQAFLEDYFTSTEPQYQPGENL

U-87MG ATCC [15] = settings: Homo sapiens; remark: listed apart in the source
[16] = Half life in CD-1 mouse at 10 mg/kg, po; format: ADME, organism-based; set-up: dose 10 mg/kg, route oral; settings: in vivo
[17] = Half life in CD-1 mouse at 2 mg/kg, iv; format: ADME, organism-based; set-up: dose 2 mg/kg, route intravenous; settings: in vivo
[18] = Bioavailability in CD-1 mouse at 10 mg/kg, po; settings: in vivo
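Wherever EC50 is given: antiproliferative effect on human HCT116 cells, read out by luminescence.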

Chain of CYP2C9 (P11712 whole entry): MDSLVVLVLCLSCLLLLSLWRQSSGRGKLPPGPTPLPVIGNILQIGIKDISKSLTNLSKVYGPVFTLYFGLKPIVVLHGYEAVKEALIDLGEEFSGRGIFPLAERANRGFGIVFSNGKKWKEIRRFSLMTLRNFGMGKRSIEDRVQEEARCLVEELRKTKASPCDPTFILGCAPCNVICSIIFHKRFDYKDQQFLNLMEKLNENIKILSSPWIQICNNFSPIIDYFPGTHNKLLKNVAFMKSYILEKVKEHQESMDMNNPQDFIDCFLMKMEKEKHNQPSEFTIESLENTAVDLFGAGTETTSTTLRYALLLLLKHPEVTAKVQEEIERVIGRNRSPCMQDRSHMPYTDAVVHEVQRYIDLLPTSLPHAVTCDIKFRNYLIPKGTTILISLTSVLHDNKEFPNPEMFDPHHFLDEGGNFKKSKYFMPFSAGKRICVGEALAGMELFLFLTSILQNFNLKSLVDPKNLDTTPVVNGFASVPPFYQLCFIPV

Structure (SMILES)	EC50 (HCT-116)	IC50 [1]	half-life [2]	inhibition at 3 µM (CYP2C9)	half-life [3]	solubility ([4]; read-out: solubility)	inhibition at 3 µM (CYP3A4)	half-life [5]	inhibition at 3 µM (CYP2D6)	IC50 [6]	other results
Cc1c2c(n3c1CCC(=O)N1CCC[C@@H]1CNc1cc-3ccc1C(N)=O)CC(C)(C)CC2=O	0.31 µM	0.188 µM	–	–	–	–	–	–	–	–	–
Cc1c2c(n3c1CCCN1CCCC[C@@H]1[C@H](C)Nc1cc-3ccc1C(N)=O)CC(C)(C)CC2=O	0.067 µM	0.17 µM	7 min	4%	3 min	35 µg/mL (≈ 75.7 µM)	55%	6 min	4%	1.5 µM	–
Cc1c2c(n3c1CCCN1CC[C@@H](C1)Nc1cc-3ccc1C(N)=O)CC(C)(C)CC2=O	0.671 µM	0.982 µM	5 min	25%	–	49 µg/mL (≈ 117 µM)	70%	–	23%	–	–
Cc1c2c(n3c1CCCN1CCNC[C@H]1CNc1cc-3ccc1C(N)=O)CC(C)(C)CC2=O	1.85 µM	3.32 µM	> 30 min	12%	> 30 min	> 100 µg/mL	1%	> 30 min	3%	–	–
Cc1c2c(n3c1CCCN1CCCC[C@@H]1CNc1cc-3ccc1C(N)=O)CC(C)(C)CC2=O	0.032 µM	0.126 µM	3 min	0%	8 min	52 µg/mL (≈ 116 µM)	77%	27 min	16%	–	–
Cc1c2c(n3c1CCCCN1CCC[C@@H]1CNc1cc-3ccc1C(N)=O)CC(C)(C)CC2=O	0.232 µM	0.301 µM	8 min	0%	5 min	> 100 µg/mL	67%	11 min	2%	–	–
Cc1c2c(n3c1CCCN1C[C@@H](N4CCCC4)C[C@@H]1CNc1cc-3ccc1C(N)=O)CC(C)(C)CC2=O	2.43 µM	0.496 µM	5 min	3%	–	71 µg/mL (≈ 141 µM)	34%	–	69%	–	–
Cc1c2c(n3c1CCCN1CC[C@H](CNc4cc-3ccc4C(N)=O)C1)CC(C)(C)CC2=O	0.1 µM	0.201 µM	21 min	2%	23 min	> 100 µg/mL	53%	> 30 min	0%	0.44 µM	–
CC(=O)N[C@H]1C[C@@H]2CNc3cc(ccc3C(N)=O)-n3c(c(C)c4c3CC(C)(C)CC4=O)CCCN2C1	2.56 µM	0.634 µM	–	–	–	–	–	–	–	–	–
Cc1c2c(n3c1CCCN1CCC[C@@H]1CNc1cc-3ccc1C(N)=O)CC(C)(C)CC2=O	–	–	6 min	6%	–	2320 µg/mL (≈ 5350 µM)	–	–	–	2.6 µM	IC50 [7]: 22 µM; inhibition (U-87MG ATCC [8]): Active; AUC(0-inf) [9]: 6460 ng·h/mL; inhibition (U-87MG ATCC [10]): Active; clearance [11]: 19 mL/min/kg; Vd [12]: 5.3 L/kg; AUC(0-inf) [13]: 1740 ng·h/mL; IC50 [14]: > 50 µM; inhibition (U-87MG ATCC [15]): Active; half-life [16]: 312 min; half-life [17]: 276 min; bioavailability [18]: 74%
Cc1c2c(n3c1CCCN1C[C@H](O)C[C@@H]1CNc1cc-3ccc1C(N)=O)CC(C)(C)CC2=O	0.192 µM	0.153 µM	10 min	9%	3 min	67 µg/mL (≈ 149 µM)	64%	7 min	33%	–	–
CC(=O)N1CCN2CCCc3c(C)c4c(n3-c3ccc(C(N)=O)c(c3)NC[C@H]2C1)CC(C)(C)CC4=O	0.14 µM	0.106 µM	3 min	15%	14 min	> 100 µg/mL	34%	5 min	4%	24.4 µM	–
Cc1c2c(n3c1CCCN1C[C@@H](F)C[C@@H]1CNc1cc-3ccc1C(N)=O)CC(C)(C)CC2=O	0.06 µM	0.061 µM	2 min	46%	4 min	3 µg/mL (≈ 6.63 µM)	77%	5 min	9%	16.4 µM	–
Cc1c2c(n3c1CCN1CCC[C@@H]1CNc1cc-3ccc1C(N)=O)CC(C)(C)CC2=O	0.46 µM	0.883 µM	6 min	0%	–	6 µg/mL (≈ 14.3 µM)	32%	–	6%	–	–
Cc1c2c(n3c1CCCNC(=O)[C@H](C)Nc1cc-3ccc1C(N)=O)CC(C)(C)CC2=O	0.056 µM	0.082 µM	> 30 min	23%	4 min	> 100 µg/mL	6%	> 30 min	5%	–	–
Cc1c2c(n3c1CCCN1CC[C@@H](CNc4cc-3ccc4C(N)=O)C1)CC(C)(C)CC2=O	2.97 µM	> 5 µM	–	–	–	–	–	–	–	–	–
Cc1c2c(n3c1CCCN1CCOC[C@@H]1CNc1cc-3ccc1C(N)=O)CC(C)(C)CC2=O	0.034 µM	0.096 µM	3 min	39%	3 min	29 µg/mL (≈ 64.4 µM)	71%	7 min	0%	12.5 µM	–
Cc1c2c(n3c1CCCN1CCC[C@@H](C1)Nc1cc-3ccc1C(N)=O)CC(C)(C)CC2=O	0.039 µM	0.078 µM	8 min	74%	2 min	16 µg/mL (≈ 36.8 µM)	76%	3 min	12%	3.4 µM	–
Cc1c2c(n3c1CCCN1CCC[C@H]1CNc1cc-3ccc1C(N)=O)CC(C)(C)CC2=O	1.14 µM	–	–	–	–	–	–	–	–	–	solubility [4]: 66 µg/mL (≈ 152 µM)

— ChEMBL document CHEMBL1777689 (Bioorg Med Chem Lett, 2011)
